Patent publication US9107830B2, “Inhibitors of crystallization in a solid dispersion” (ABBVIE, INC., priority 1999, dated 2015)
“Also recorded” adds a separate entry of the source.

Legend:
[1] = X-ray powder diffraction of freshly prepared solid dispersions (physical form of drug in matrix); type: physicochemical
Protocol: (§1) An X-ray powder diffraction (XPD) pattern was obtained with a Scintag® XDS 2000 θ/θ diffraction system equipped with a 2 kW normal focus X-ray tube and a liquid nitrogen cooled germanium solid state detector.
The samples were prepared by dissolving ABT-538 in a small volume of 200 proof ethanol in a 250 ml round bottom flask. The flask was vortexed and then placed in a water bath maintained at 75° C. The PEG 8000 was added to the hot alcohol solution with continual swirling until the PEG melted. The flask was then attached to a rotary evaporator, immersed in the water bath (75° C.) under vacuum for 15 minutes to remove the ethanol. After the majority of ethanol had evaporated, the flask was immersed in an ice bath for 15 minutes. The contents of the flask were then vacuum dried at room temperature overnight to remove residual alcohol. The dispersion was removed from the flask, gently ground, and sized to 40-100 mesh size. The drug loads used for these dispersions were 10, 20 and 30% w/w.
The solid dispersion of 30% ABT-538 in 95:5 PEG8000:PVP was prepared by dissolving the ABT-538 and PVP 17 PF in a small volume of 200 proof ethanol in a 250 ml round bottom flask. The remainder of the process was as described above. A 30% ABT-538 dispersion in 85:15 PEG8000:PVP was also prepared similarly as were dispersions of 10 or 20% PVP 17 PF in PEG 8000 without drug.
(§2) Both fenofibrate and PEG 8000 were sized to 40-100 mesh prior to mixing with a spatula on weighing paper. The mixture was then added to a 25 ml beaker and heated to 85° C. in a water bath until the all the material had melted. The molten solution was then poured onto a chilled X-ray sample holder to rapidly solidify the solution. The solid sample was immediately used to monitor the crystallization rate via X-ray powder diffraction.
Fenofibrate (40-100 mesh) was added to the 90:10 PEG 8000:PVP control dispersion (see above) which was also sized to 40-100 mesh and mixed with spatula on a piece of weighing paper. The mixture was then processed as described above for the 15% fenofibrate dispersion in PEG 8000.
Both griseofulvin and PEG 8000 were sized to 40-100 mesh prior to mixing on a weighing paper with a spatula. The sample was then added to an 4 ml stainless steel vessel which was sealed under a N2 atmosphere. The vessel was then immersed into an oil bath maintained at 180° C. […]
A similar plot is shown in FIG. 2 with PVP incorporated into the matrix. […] Crystallization kinetics were determined by heating the samples to 85° C., holding them isothermally for predetermined times followed by heating through the melting transition temperature of ABT-538. The heats of fusion were determined and ratioed against the heat of fusion of the drug melting in the physical mixture, giving the fraction crystallized. […]

[2] = DSC crystallization kinetics, isothermal hold at 85° C.; type: physicochemical; settings: PVP in matrix versus PEG
Protocol: DSC measurements were made using a Mettler DSC 30 unit. Samples (4-7 mg) were sealed in standard 40 μl aluminum crucibles with a single hole punched in the lids. An empty crucible of the same type was used as a reference.
A similar plot is shown in FIG. 2 with PVP incorporated into the matrix. […] A similar plot is seen in FIG. 4 for the PEG:PVP dispersion. The endotherm associated with drug melting can clearly be discerned from the other components. Thus, it is possible to follow the kinetics of ABT-538 crystallization via DSC measurements. Crystallization kinetics were determined by heating the samples to 85° C., holding them isothermally for predetermined times followed by heating through the melting transition temperature of ABT-538. The heats of fusion were determined and ratioed against the heat of fusion of the drug melting in the physical mixture, giving the fraction crystallized.

[3] = Isothermal calorimetry (TAM) of recrystallization at 40° C.; type: physicochemical
Protocol: The recrystallization reactions of 30% ABT-538 in PEG or PEG:PVP (95:5) solid dispersions were monitored via isothermal calorimetry (Thermometric 2277 Calorimeter) at 40° C. Since crystallization is an exothermic process, a positive power output indicates crystallization. The magnitude of the power output at any time is proportional to the rate of crystallization. XPD was used to confirm crystallization.
The crystallization rate was also followed via the heat associated with crystallization of ABT-538 using a isothermal calorimetry. The shapes and magnitudes of the crystallization peaks in FIG. 6 indicate that ABT-538 crystallizes more readily in the PEG matrix as compared to the PEG:PVP matrix. This stabilizing effect of PVP is also reflected in the times required for complete crystallization (time to reach baseline) which were <10 hours for PEG and >30 hours for PEG:PVP (95:5).

[4] = XPD monitoring for crystalline drug in samples held at 50° C.; type: physicochemical
Protocol: An X-ray powder diffraction (XPD) pattern was obtained with a Scintag® XDS 2000 θ/θ diffraction system equipped with a 2 kW normal focus X-ray tube and a liquid nitrogen cooled germanium solid state detector. An additional study was performed with a dispersion containing 15% PVP. The samples were held at 50° C. (above the Tg of ABT-538) and X-ray diffraction patterns were measured over time to monitor for the appearance of crystalline ABT-538.

[5] = Aungst et al., Int. J. Pharm. 156, 79 (1997); cited from earlier work
[6] = XPD rate of crystallization upon storage at 25° C.; type: physicochemical
Protocol: as §1, §2
The figure illustrates that the fenofibrate is X-ray-amorphous within the matrix. Again, the fenofibrate is amorphous. Upon storage at 25° C., the fenofibrate begins to crystallize in the PEG 8000 matrix within 1 hour (FIG. 10). Additional crystallization follows up to 12 hours, when the experiment was terminated.
Similar XPD patterns for the griseofulvin dispersion in PEG 8000 and 80:20 PEG 8000:PVP matrices are shown in FIGS. 12 and 13, respectively. In both instances, amorphous griseofulvin is isolated within the respective matrices. […] However, in the presence of PVP (FIG. 15), crystallization is not observed even after 15 hours under the same conditions.

[7] = PEG 8000:PVP matrix, 30% ABT-538, 15% fenofibrate (90:10) or 15% griseofulvin (80:20)
[8] = PEG 8000 matrix, 30% ABT-538, 15% fenofibrate or 15% griseofulvin

| Compound | physical form of drug in the solid dispersion by XPD [1, 7] | physical form of drug in the solid dispersion by XPD [1, 8] | effect of PVP within the matrix on crystallization rate (percent crystallized from heat of fusion) [2] | effect of PVP within the matrix on crystallization rate (percent crystallized from heat of fusion) ([2]; listed as ritonavir) | time required for complete crystallization (time to reach baseline) ([3]; 30% ABT-538 in PEG solid dispersion) [h] | time required for complete crystallization (time to reach baseline) ([3]; 30% ABT-538 in PEG:PVP (95:5) solid dispersion) [h] | time at which crystalline drug is detected (XPD) ([4]; PEG8000 alone, detected at this time and before) [h] | time held without crystalline ABT-538 present (XPD) ([4]; dispersion containing 15% PVP) [h] | effect of PEG solid dispersion formulation on bioavailability [5] | time at which drug begins to crystallize (XPD) ([6]; 15% drug in PEG 8000 matrix, storage at 25° C.) | time without crystallization observed (XPD) ([6]; 15% griseofulvin in 80:20 PEG 8000:PVP, 25° C.) [h] |
| --- | --- | --- | --- | --- | --- | --- | --- | --- | --- | --- | --- |
| CC(C)c1nc(CN(C)C(=O)NC(C(=O)NC(Cc2ccccc2)CC(O)C(Cc2ccccc2)NC(=O)OCc2cncs2)C(C)C)cs1 [ABT-538, (2S,3S,5S)-5-(N—(N—((N-methyl-N-((2-isopropyl-4-thiazolyl)-methyl)amino)carbonyl)-L-valinyl)amino-2-(N-((5-thiazolyl)methoxy-carbonyl)-amino)-1,6-diphenyl-3-hydroxyhexane] | Amorphous; also recorded: not crystalline | Amorphous; also recorded: not crystalline | suppresses the crystallization rate | slower | < 10 | > 30 | ≤ 233 | > 272 | – | – | – |
| O=C1N(Cc2ccc(CO)cc2)[C@H](Cc2ccccc2)[C@H](O)[C@@H](O)[C@@H](Cc2ccccc2)N1Cc1ccc(CO)cc1 [DMP 323] | – | – | – | – | – | – | – | – | unable to improve the bioavailability | – | – |
| COC1=CC(=O)C[C@@H](C)[C@]12Oc1c(Cl)c(OC)cc(OC)c1C2=O [griseofulvin] | amorphous | amorphous | – | – | – | – | – | – | – | one | > 15 |
